This note sets out measurements from BindingDB's records for doi:10.1111/cbdd.12089 (Southeast University, 2013).

In one test the target is Aurora kinase B (Homo sapiens, UniProt Q96GD4). The test can be described thus: Aurora Kinase Assay. How it is done: (§1) The kinase assay of Aurora A and B was measured using HTRF-kinEASE-STK discovery kit purchased from Cisbio.
The next test deals with T1, Aurora kinase A (Homo sapiens, UniProt O14965).
T1 sequence (O14965 whole entry): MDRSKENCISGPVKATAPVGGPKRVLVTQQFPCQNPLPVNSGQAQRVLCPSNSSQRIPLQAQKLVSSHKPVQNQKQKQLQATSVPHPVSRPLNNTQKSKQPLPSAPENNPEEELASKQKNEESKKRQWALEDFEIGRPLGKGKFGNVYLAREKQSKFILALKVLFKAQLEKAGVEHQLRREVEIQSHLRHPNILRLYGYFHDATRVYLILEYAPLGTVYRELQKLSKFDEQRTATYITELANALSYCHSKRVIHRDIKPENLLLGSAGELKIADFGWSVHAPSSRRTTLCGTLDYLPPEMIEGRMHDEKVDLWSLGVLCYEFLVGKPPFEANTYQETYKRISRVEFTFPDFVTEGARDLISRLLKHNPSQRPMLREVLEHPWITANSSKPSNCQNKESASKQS
The test can be described thus: Aurora Kinase Assay. On the procedure:
as §1

Sequence of Aurora kinase B (Q96GD4 whole entry): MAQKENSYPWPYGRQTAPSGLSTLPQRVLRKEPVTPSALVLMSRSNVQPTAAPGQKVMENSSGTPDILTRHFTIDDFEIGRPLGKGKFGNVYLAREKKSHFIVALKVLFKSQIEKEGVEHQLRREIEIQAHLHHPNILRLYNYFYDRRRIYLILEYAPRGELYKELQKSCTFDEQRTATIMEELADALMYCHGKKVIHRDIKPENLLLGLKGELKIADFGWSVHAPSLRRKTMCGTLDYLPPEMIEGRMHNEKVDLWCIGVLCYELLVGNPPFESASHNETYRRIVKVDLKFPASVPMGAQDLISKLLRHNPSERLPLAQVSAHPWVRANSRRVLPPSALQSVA

`Cc1ccc(Nc2ncnc3cc(OCCCN4CCOCC4)ccc23)cc1Nc1ncc(-c2cccnc2)cn1` [4-Aminoquinazoline derivative, 6a]: the IC50 was determined as 191 nM on Aurora kinase B and 179 nM on Aurora kinase A.

As for `CCOC(=O)c1csc2cc(Nc3ncnc4cc(OCCCN5CCCC5)ccc34)ccc12` [4-Aminoquinazoline derivative, 6h], the IC50 against Aurora kinase B is 146 nM; against Aurora kinase A, 62 nM.

Compound `CCOC(=O)c1csc2cc(Nc3ncnc4cc(OCCCN5CCCCC5)ccc34)ccc12` [4-Aminoquinazoline derivative, 6g] came in with an IC50 against Aurora kinase A of 822 nM.

`CCN(CC)CCCOc1ccc2c(Nc3ccc(C)c(Nc4ncc(-c5cccnc5)cn4)c3)ncnc2c1` [4-Aminoquinazoline derivative, 6c]: the values for the concentration for half-maximal inhibition (IC50) against Aurora kinase B and on Aurora kinase A were 202 nM and 98 nM, respectively.

For the compound `Cc1ccc(Nc2ncnc3cc(OCCCN4CCCCC4)ccc23)cc1Nc1ncc(-c2cccnc2)cn1` [4-Aminoquinazoline derivative, 6b], the IC50 against Aurora kinase B is 489 nM; against Aurora kinase A, 323 nM.

As for `CCOC(=O)c1csc2cc(Nc3ncnc4cc(OCCCN5CCN(C)CC5)ccc34)ccc12` [4-Aminoquinazoline derivative, 6f], the values for the IC50 against Aurora kinase B and on Aurora kinase A were 136 nM and 111 nM, respectively.

For `Cc1ccc(Nc2ncnc3cc(OCCCN4CCCC4)ccc23)cc1Nc1ncc(-c2cccnc2)cn1` [4-Aminoquinazoline derivative, 6d], the IC50 turned out to be 145 nM at Aurora kinase B and 77 nM on Aurora kinase A.

Consider `CCOC(=O)c1csc2cc(Nc3ncnc4cc(OCCCN(CC)CC)ccc34)ccc12` [4-Aminoquinazoline derivative, 6i], for which the IC50 came to 893 nM against Aurora kinase B and 788 nM against Aurora kinase A.

Broadly, the IC50 is the concentration that gives 50% inhibition.
